Experimental findings from US20230056335A1, “TOPICAL FORMULATION CONTAINING RAPAMYCIN” (NOBELPHARMA CO., LTD., priority 2020, published 2023) are described below.

Data set [1] in a line: Solubility of sirolimus in each single solvent (visual observation). The data set is classed as physicochemical. The conditions noted are these: sirolimus:solvent 1:50 (weight ratio). As for the experimental part:
Sirolimus was mixed into each solvent shown in Table 1 so that sirolimus:solvent was a ratio of 1:50 (weight ratio), heating and ultrasonic irradiation were performed thereon in a water bath of about 50° C., and solubility was confirmed by visual observation.

Data set [2] in a line: Effects of mixing amount of BHT on stability of sirolimus, HPLC quantification. It counts as physicochemical. The conditions noted are these: BHT mixed at a concentration of 1% or higher; 40° C. and 50° C. for 2 weeks. The protocol: Quantification of sirolimus was performed by conducting an HPLC test under the following conditions and comparing the area of a sirolimus peak in a test substance and the area of a sirolimus peak in a sirolimus standard.
Detector: ultraviolet absorption photometer (detection wavelength: 278 nm)
Column: stainless steel tube with internal diameter of 4.6 mm and length of 250 mm filled with octadecylsilyl-silica gel for chromatography
Column temperature: constant temperature of about 40° C.
Mobile phase: acetonitrile/0.02 mol/L ammonium acetate buffer (pH 6.0)=13/7
Solutions were prepared by mixing various concentrations of BHT into the ethanol solution of sirolimus, and the solutions were stored at 40° C. and 50° C. for 2 weeks. Quantification of sirolimus was performed on samples after the storage by the same method as that in Reference Example 2 to calculate residual ratios.

The next data set has as its system EFT-400 kit skin model. The experiment in a line: Penetration test for ointment into skin model. The data set is classed as in vitro ADME. As for the experimental part:
Penetration of an ointment into a skin model was tested using the sirolimus ointment prepared in Example 4 as a test substance and an EFT-400 kit manufactured by MetTec Corporation as the skin model.
Skin model cells were transferred to a 6-well plate into which an EFT-400 assay medium was dispensed, and the cells were incubated overnight (for 16 to 18 hours) in a carbon dioxide incubator (37° C., 5% CO2, under a humidified condition).
About 50 mg of the test substance was applied onto the center of the cultured skin cells and evenly spread on the cells. These cells were incubated for 24 hours in a carbon dioxide incubator (37° C., 5% CO2, under a humidified condition). […]
Then, the sample solution was diluted 10-fold with the blank matrix, and 20 μL of the diluted sample solution was collected in a PP tube. 20 μL of acetonitrile, 20 μL of the internal standard solution, and 50 μL methanol were added to and mixed with the diluted sample solution, and the mixture was subjected to LC/MS/MS under the following conditions to quantify a sirolimus concentration in the measurement sample. The mass of sirolimus that transferred to the dermic layer was calculated from the obtained value of the sirolimus concentration and the mass of the dermic layer used in the preparation of the sample solution. […]

The structures appear in SMILES notation.

For the molecule `CO[C@H]1C[C@@H]2CC[C@@H](C)[C@@](O)(O2)C(=O)C(=O)N2CCCC[C@H]2C(=O)O[C@H]([C@H](C)C[C@@H]2CC[C@@H](O)[C@H](OC)C2)CC(=O)[C@H](C)/C=C(\C)[C@@H](O)[C@@H](OC)C(=O)[C@H](C)C[C@H](C)/C=C/C=C/C=C/1C` [sirolimus], in data set [1] (each solvent of Table 1), the “Solubility in a single solvent” value was “did not dissolve”. For the same molecule, the Solubility result in data set [1] (solvent 1,3 Butylene glycol, about 50° C.) is “Insoluble (cloudy liquid)”; in data set [1] (solvent Diethyl sebacate, about 50° C.), “Insoluble (cloudy liquid)”; in data set [1] (solvent Diisopropyl sebacate, about 50° C.) it was “Insoluble (cloudy liquid)”; in data set [1] (solvent Ethylene glycol salicylate, about 50° C.), “Insoluble (cloudy liquid)”; in data set [1] (solvent Medium-chain fatty acid triglyceride, heating and ultrasonic irradiation about 50° C.), “Insoluble (cloudy liquid)”; in data set [1] (solvent Polyethylene glycol (Macrogol 400), about 50° C.), “Insoluble (cloudy liquid)”. In addition, the Solubility result in data set [1] (solvent Propylene glycol, about 50° C.) is “Insoluble (cloudy liquid)”; in data set [1] (solvent Squalane, about 50° C.), “Insoluble (cloudy liquid)”; in data set [1] (solvent Triacetin, about 50° C.) it was “Insoluble (cloudy liquid)”. Also, the Stability of sirolimus result in data set [2] is on record as “stability of sirolimus was maintained”. Further, in the data set on EFT-400 kit skin model (sirolimus ointment prepared in Example 4, about 50 mg applied, 24 hours incubation, LC/MS/MS), the “Rate of sirolimus transferred to the dermic layer” value is 1.402 % with respect to the indicated dose. For the same molecule, the Skin penetrating properties entry in the data set on EFT-400 kit skin model (sirolimus ointment prepared in Example 4, EFT-400 skin model) is on record as “sufficiently maintained”.
